Several values for one entry are separate records, joined by “and”; a condition that tells them apart may be missing. Equal values may be shown once.
Experiment: wn = mass fraction of the nth substance listed
Conditions: Liquid, Pulse-echo method, w2 = 0.5

FC(F)C(F)(F)F [pentafluoroethane] + FCF
speed of sound
Conditions	288.2 K	298.2 K	308.25 K	318.17 K	328.17 K	338.16 K
1650 kPa	500.3 m/s	–	–	–	–	–
1680 kPa	–	440.6 m/s and 440.2 m/s and 440.3 m/s	–	–	–	–
1750 kPa	501.7 m/s	441.7 m/s	–	–	–	–
1880 kPa	503.4 m/s	444 m/s	–	–	–	–
2010 kPa	505.1 m/s	446 m/s	–	–	–	–
2130 kPa	–	448.2 m/s	–	–	–	–
2170 kPa	–	–	383.3 m/s and 383.4 m/s	–	–	–
2250 kPa	508.2 m/s	450 m/s	384.9 m/s	–	–	–
2380 kPa	–	–	387.7 m/s	–	–	–
2510 kPa	511.3 m/s	454 m/s	390.5 m/s	–	–	–
2750 kPa	514.7 m/s	457.8 m/s	395.6 m/s	323.4 m/s	–	–
2760 kPa	–	–	–	323.6 m/s	–	–
2880 kPa	–	–	–	327.2 m/s	–	–
3010 kPa	517.7 m/s	461.7 m/s	400.6 m/s	330.8 m/s	–	–
3250 kPa	–	–	–	337.8 m/s	–	–
3470 kPa	–	–	–	–	257.9 m/s and 258.1 m/s and 258 m/s	–
3500 kPa	524 m/s	469.1 m/s	409.9 m/s	344.5 m/s	–	–
3590 kPa	–	–	–	–	263.4 m/s	–
3720 kPa	–	–	–	–	269.8 m/s	–
3860 kPa	–	–	–	–	275.4 m/s	–
4000 kPa	529.7 m/s	475.9 m/s	418.9 m/s	356.6 m/s	281.3 m/s	–
4250 kPa	–	–	–	–	290.2 m/s	–
4340 kPa	–	–	–	–	–	183.3 m/s
4410 kPa	–	–	–	–	–	189.7 m/s
4500 kPa	535.6 m/s	483 m/s	427.4 m/s	367.9 m/s	298.5 m/s	200.4 m/s
4750 kPa	–	–	–	–	–	217.6 m/s
5000 kPa	541.1 m/s	489.9 m/s	435.6 m/s	378.2 m/s	313.4 m/s	231.3 m/s
5500 kPa	–	–	–	–	–	255.4 m/s
6010 kPa	552 m/s	502.6 m/s	450.5 m/s	397.4 m/s	339.3 m/s	273.8 m/s
7010 kPa	562.3 m/s	514.4 m/s	464.7 m/s	414.5 m/s	360.6 m/s	303.5 m/s
8000 kPa	572.3 m/s	525.7 m/s	477.8 m/s	429.7 m/s	379.4 m/s	327.5 m/s
9000 kPa	582 m/s	536.4 m/s	490.2 m/s	444.1 m/s	396.7 m/s	348.4 m/s
10000 kPa	591.2 m/s	546.7 m/s	501.7 m/s	457.3 m/s	412.2 m/s	366.8 m/s
12000 kPa	608.7 m/s	566.4 m/s	523.6 m/s	481.7 m/s	440.2 m/s	398.9 m/s
14000 kPa	625.1 m/s	584.5 m/s	543.5 m/s	503.8 m/s	464.8 m/s	426.3 m/s
16010 kPa	640.6 m/s	601.6 m/s and 601.3 m/s	562.1 m/s	524.3 m/s	487.3 m/s	450.8 m/s
18000 kPa	655.7 m/s	617.3 m/s	579.5 m/s	543.1 m/s	507.4 m/s	472.9 m/s
20000 kPa	669.7 m/s	632.4 m/s	596 m/s	560.6 m/s	526.4 m/s	493.2 m/s
23000 kPa	689.6 m/s	653.8 m/s	619 m/s	585.3 m/s	552.3 m/s	521.1 m/s
26000 kPa	708.7 m/s	673.7 m/s	640 m/s	607.9 m/s	576.7 m/s	546.3 m/s
29010 kPa	727 m/s	693 m/s	660.1 m/s	628.9 m/s	598.7 m/s	569.7 m/s
32000 kPa	744 m/s	711.1 m/s	678.9 m/s	648.5 m/s	619.2 m/s	591.3 m/s
35000 kPa	760.4 m/s	728.5 m/s	697.2 m/s	667.3 m/s	638.6 m/s	611.3 m/s
40000 kPa	786.1 m/s	754.9 m/s	725.2 m/s	696.7 m/s	669 m/s	642.8 m/s
45000 kPa	810 m/s	780.3 m/s	751.3 m/s	723.8 m/s	697.4 m/s	671.7 m/s
50000 kPa	833 m/s	803.7 m/s	775.7 m/s	749.1 m/s	723.3 m/s	698.8 m/s
55000 kPa	854.6 m/s	826.3 m/s	798.8 m/s	772.8 m/s	747.8 m/s	724.1 m/s
60000 kPa	875.4 m/s	847.6 m/s	821 m/s	795.7 m/s	770.9 m/s	747.7 m/s
65000 kPa	895.5 m/s	868.2 m/s	841.9 m/s	817.3 m/s	793.1 m/s	770.1 m/s

Conditions	speed of sound [m/s]
298.25 K	440.4
308.25 K	383.4
318.17 K	323.4
